The source made the active and inactive calls. The calls are words filed in the database; no cut-off is given here.
What was measured:
[1] = biological target: Acetylcholinesterase (Electrophorus electricus) (UniProt O42275); test: Inhibition of electric eel AChE at 100 uM using acetylthiocholine chloride as a substrate incubated for 20 mins followed by substrate addition and measured after 20 mins by Ellman's method; details: time 40.0 min
SH-SY5Y = test: Neuroprotective activity against H2O2-induced oxidative stress in human SH-SY5Y cells assessed as cell viability at 50 uM pretreated for 1 hr followed by H2O2 addition and measured after 4 hrs by MTT assay relative to control; type: functional; details: time 5 hrs, read-out: Activity
[2] = biological target: Acetylcholinesterase (Electrophorus electricus) (UniProt O42275); test: Inhibition of electric eel AChE at 100 uM using acetylthiocholine chloride as a substrate incubated for 20 mins followed by substrate addition and measured after 20 mins by Ellman's method relative to control; details: time 40.0 min
Acetylcholinesterase = Acetylcholinesterase (Electrophorus electricus, UniProt O42275); test: Inhibition of electric eel AChE using acetylthiocholine chloride as a substrate incubated for 20 mins followed by substrate addition and measured after 20 mins by Ellman's method
Acetylcholinesterase, sequence (O42275 whole entry): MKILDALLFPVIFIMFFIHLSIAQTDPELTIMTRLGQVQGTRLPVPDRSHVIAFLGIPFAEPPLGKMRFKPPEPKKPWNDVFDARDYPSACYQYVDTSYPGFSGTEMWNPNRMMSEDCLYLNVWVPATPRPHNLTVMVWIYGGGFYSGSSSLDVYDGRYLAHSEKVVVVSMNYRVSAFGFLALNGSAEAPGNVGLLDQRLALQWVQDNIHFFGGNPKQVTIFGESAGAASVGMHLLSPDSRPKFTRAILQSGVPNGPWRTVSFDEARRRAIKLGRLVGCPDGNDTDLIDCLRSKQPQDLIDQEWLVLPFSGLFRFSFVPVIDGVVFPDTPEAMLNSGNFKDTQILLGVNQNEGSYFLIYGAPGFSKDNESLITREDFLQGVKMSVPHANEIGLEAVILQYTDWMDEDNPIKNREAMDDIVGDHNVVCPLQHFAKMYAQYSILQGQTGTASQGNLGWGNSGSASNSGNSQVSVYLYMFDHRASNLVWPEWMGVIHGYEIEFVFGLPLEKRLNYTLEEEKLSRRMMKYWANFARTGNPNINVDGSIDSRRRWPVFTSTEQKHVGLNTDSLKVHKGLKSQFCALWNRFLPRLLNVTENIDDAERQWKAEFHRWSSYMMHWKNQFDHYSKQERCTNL

[3] = biological target: Acetylcholinesterase (Electrophorus electricus) (UniProt O42275); test: Potency index, ratio of HPA IC50 to test compound IC50 for inhibition of electric eel AChE using acetylthiocholine chloride as a substrate incubated for 20 mins followed by substrate addition and measured after 20 mins by Ellman's method; details: time 40.0 min

Acetylcholinesterase (Electrophorus electricus), sequence (O42275 24-633 limits assumed): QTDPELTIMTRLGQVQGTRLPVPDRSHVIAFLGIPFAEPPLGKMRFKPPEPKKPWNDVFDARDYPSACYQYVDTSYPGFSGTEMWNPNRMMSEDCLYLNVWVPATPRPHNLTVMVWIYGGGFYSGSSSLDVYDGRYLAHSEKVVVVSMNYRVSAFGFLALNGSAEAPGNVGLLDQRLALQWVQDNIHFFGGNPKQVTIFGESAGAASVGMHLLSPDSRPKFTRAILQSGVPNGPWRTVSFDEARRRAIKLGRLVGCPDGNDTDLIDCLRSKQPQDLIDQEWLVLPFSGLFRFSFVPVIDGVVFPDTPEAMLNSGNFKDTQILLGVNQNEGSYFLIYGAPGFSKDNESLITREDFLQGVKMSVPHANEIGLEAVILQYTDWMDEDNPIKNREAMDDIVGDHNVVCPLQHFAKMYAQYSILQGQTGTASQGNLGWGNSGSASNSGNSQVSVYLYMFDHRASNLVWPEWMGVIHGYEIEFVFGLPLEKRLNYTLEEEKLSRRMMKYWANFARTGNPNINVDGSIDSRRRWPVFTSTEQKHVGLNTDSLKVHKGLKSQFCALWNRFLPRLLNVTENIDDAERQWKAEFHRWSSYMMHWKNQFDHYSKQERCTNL

| SMILES | viability at 50 µM (SH-SY5Y) [%] | inhibition [2] [%] | IC50 (Acetylcholinesterase) [µM] | also measured |
| --- | --- | --- | --- | --- |
| C/C=C1\[C@H]2C=C(C)C[C@]1(Nc1cccc(OC)c1)c1ccc(=O)[nH]c1C2 |  |  |  | inhibition [1]: Active |
| C/C=C1\[C@H]2C=C(C)C[C@]1(Nc1cc(C)cc(C)c1)c1ccc(=O)[nH]c1C2 | > 100 |  |  |  |
| C/C=C1\[C@H]2C=C(C)C[C@]1(Nc1cccc(F)c1)c1ccc(=O)[nH]c1C2 |  |  |  | inhibition [1]: Active |
| C/C=C1\[C@H]2C=C(C)C[C@]1(Nc1ccc(Cl)cc1)c1ccc(=O)[nH]c1C2 |  |  |  | inhibition [1]: Active |
| C/C=C1\[C@H]2C=C(C)C[C@]1(Nc1cccc(C)c1)c1ccc(=O)[nH]c1C2 | > 100 | > 92 | 47 |  |
| C/C=C1\[C@H]2C=C(C)C[C@]1(Nc1ccc3c(c1)OCO3)c1ccc(=O)[nH]c1C2 | > 100 |  |  |  |
| C/C=C1\[C@H]2C=C(C)C[C@]1(Nc1cccc(C)n1)c1ccc(=O)[nH]c1C2 | > 100 |  |  |  |
| C/C=C1\[C@H]2C=C(C)C[C@]1(Nc1ccc(C)cc1)c1ccc(=O)[nH]c1C2 | > 100 |  |  |  |
| C/C=C1\[C@H]2C=C(C)C[C@]1(Nc1ncccc1C)c1ccc(=O)[nH]c1C2 |  | > 92 | 40 |  |
| C/C=C1\[C@H]2C=C(C)C[C@]1(Nc1ccc(F)cc1)c1ccc(=O)[nH]c1C2 |  | > 92 | 4.5 |  |
| C/C=C1\[C@H]2C=C(C)C[C@]1(Nc1ncccc1OC)c1ccc(=O)[nH]c1C2 |  |  |  | inhibition [1]: Active |
| C/C=C1\[C@H]2C=C(C)C[C@]1(Nc1c(C)cc(OC)cc1C)c1ccc(=O)[nH]c1C2 | > 100 | 96 | 3.9 |  |
| C/C=C1\[C@H]2C=C(C)C[C@]1(Nc1ccc(OCC)cc1)c1ccc(=O)[nH]c1C2 | > 100 |  |  |  |
| C/C=C1\[C@H]2C=C(C)C[C@]1(Nc1cccc3ncccc13)c1ccc(=O)[nH]c1C2 | > 100 |  |  |  |
| C/C=C1\[C@H]2C=C(C)C[C@]1(Nc1cc(C)ccn1)c1ccc(=O)[nH]c1C2 | > 100 |  |  | inhibition [1]: Active |
| C/C=C1\[C@H]2C=C(C)C[C@]1(Nc1ncc(C)cc1C)c1ccc(=O)[nH]c1C2 | > 100 | > 92 | 43 |  |
| C/C=C1\[C@H]2C=C(C)C[C@]1(Nc1ccc(OC)cn1)c1ccc(=O)[nH]c1C2 | 144 | 106 | 1.5 | Ratio IC50 [3]: 7.6 |

Reference: ChEMBL document CHEMBL4840332, “Pd-Catalyzed Direct Diversification of Natural Anti-Alzheimer's Disease Drug: Synthesis and Biological Evaluation of N-Aryl Huperzine A Analogues” (J Nat Prod, 2021)
